Results reported in patent US20050009894A1 (Aventis Pharma S.A., priority 2001, published 2005).

target: T1, human KDR enzyme (Homo sapiens, UniProt P35968); experiment: Phosphorylation of the substrate PLCγ by the enzyme KDR in vitro (flashplate technique); format: biochemical; settings: Activity, Table VII, degrees of activity by IC50 range
T1 construct: The cytoplasmic domain of human KDR enzyme is cloned in the form of a GST fusion; GST; made in house; host or cells: SF21 insect cells (baculovirus, pFastBac)
Outline: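 GST-fused human KDR cytoplasmic domain (Sf21 baculovirus, ~60% pure; 100 ng/well) phosphorylating 2 μg GST-PLCγ SH2-SH3 fragment in MOPS pH 7.2 with MgCl2/MnCl2, 1 h at 37° C. Started with γ33P-ATP plus cold ATP (2 μM in start solution); flashplate radioactivity. % inhibition vs no-compound control; IC50 from dose-response curves.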

T1 sequence (P35968 786-1356 limits assumed): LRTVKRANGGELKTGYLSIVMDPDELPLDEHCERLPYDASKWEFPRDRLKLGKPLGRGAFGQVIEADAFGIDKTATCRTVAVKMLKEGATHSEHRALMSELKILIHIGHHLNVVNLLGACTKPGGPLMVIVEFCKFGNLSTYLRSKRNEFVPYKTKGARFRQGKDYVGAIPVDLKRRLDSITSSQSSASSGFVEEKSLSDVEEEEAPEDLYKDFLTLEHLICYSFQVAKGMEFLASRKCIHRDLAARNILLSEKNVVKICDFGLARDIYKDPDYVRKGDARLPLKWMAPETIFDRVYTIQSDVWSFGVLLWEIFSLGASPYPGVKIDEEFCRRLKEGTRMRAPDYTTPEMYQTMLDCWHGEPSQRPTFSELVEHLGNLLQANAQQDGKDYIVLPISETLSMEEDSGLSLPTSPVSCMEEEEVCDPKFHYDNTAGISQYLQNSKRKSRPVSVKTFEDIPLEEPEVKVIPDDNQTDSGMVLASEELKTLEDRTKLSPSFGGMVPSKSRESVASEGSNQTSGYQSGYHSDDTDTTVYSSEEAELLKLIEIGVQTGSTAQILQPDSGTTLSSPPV

Compound | IC50
O=C(Cc1ccccc1)Oc1cc(-c2nc3ccccc3[nH]2)[nH]n1 [Example 219, Phenyl-acetic acid 5-(1H-benzoimidazol-2-yl)-1H-pyrazol-3-yl ester] | > 3 µM

same assay, conditions: Table VII, degrees of activity by IC50 range; read-out: Activity

Compound | IC50
O=C(COc1cc(-c2nc3ccccc3[nH]2)[nH]n1)C12C[C@H]3C[C@@H](C1)C[C@@H](C2)C3 [Example 206, 1-Adamantan-1-vl-2-[5-(1H-benzoimidazol-2-yl)-1H-pyrazol-3-yloxy]-ethanone] | > 3 µM
O=C(COc1cc(-c2nc3ccccc3[nH]2)[nH]n1)c1ccc2ccccc2c1 [Example 207, 2-[5-(1H-Benzoimidazol-2-yl)-1H-pyrazol-3-yloxy]-1-naphthalen-2-yl-ethanone] | > 3 µM
N#Cc1ccc(C(=O)COc2cc(-c3nc4ccccc4[nH]3)[nH]n2)cc1 [Example 208, 4-{2-[5-(1H-Benzoimi-dazol-2-Yl)-1H-pyrazol-3-yloxy)acetyl}-benzonitrile] | > 3 µM
O=C1CCc2cc(C(=O)COc3cc(-c4nc5ccccc5[nH]4)[nH]n3)ccc2N1 [Example 209, 6-{2-[5-(1H-Benzoimi-dazol-2-yl)-1H-pyrazol-3-yloxy]-acetyl}-3,4-dihydro-1H-quinolin-2-one] | > 3 µM
O=C(COc1cc(-c2nc3ccccc3[nH]2)[nH]n1)c1ccc(OC(F)(F)F)cc1 [Example 210, 2-[5-(1H-Benzoimidazol-2-yl)-1H-pyrazol-3-yloxy]-1-(4-trifluoromethoxy-phenyl)-ethanone] | > 3 µM
NS(=O)(=O)c1cc(C(=O)COc2cc(-c3nc4ccccc4[nH]3)[nH]n2)ccc1Cl [Example 211, 5-{2-[5-(1H-Benzoimida-zol-2-yl)-1H-pyrazol-3-yloxy]-acetyl}-2-chloro-benzenesulfonamide] | > 3 µM
COc1ccc(C(=O)COc2cc(-c3nc4ccccc4[nH]3)[nH]n2)cc1 [Example 212, 2-[5-(1H-Benzoimidazol-2-yl)-1H-pyrazol-3-yloxy]-1-(4-methoxy-phenyl)-ethanone] | > 3 µM
O=C(COc1cc(-c2nc3ccccc3[nH]2)[nH]n1)C1CC1 [Example 213, 2-[5-(1H-Benzoimidazol-2-yl)-1H-pyrazol-3-yloxy]-1-cyclopropyl-ethanone] | > 3 µM
O=C(Oc1cc(-c2nc3ccccc3[nH]2)[nH]n1)c1ccncc1 [Example 214, Isonicotinic acid 5-(1H-benzoimidazol-2-yl)-1H-pyrazol-3-yl ester] | 0.3 to 3 µM
CC(C)(C)C(=O)Oc1cc(-c2nc3ccccc3[nH]2)[nH]n1 [Example 215, 2,2-Dimethyl-propionic acid 5-(1H-benzoimidazole-2-yl)-1H-pyrazol-3-yl ester] | > 3 µM
O=C(COCc1ccccc1)Oc1cc(-c2nc3ccccc3[nH]2)[nH]n1 [Example 216, Benzyloxy-acetic acid 5-(1H-benzoimidazol-2-yl)-1H-pyrazol-3-yl ester] | > 3 µM
O=C(Oc1cc(-c2nc3ccccc3[nH]2)[nH]n1)c1ccccc1 [Example 217, Benzoic acid 5-(1H-benzoimidazol-2-yl)-1H-pyrazol-3-yl ester] | 0.3 to 3 µM
COc1ccc(C(=O)Oc2cc(-c3nc4ccccc4[nH]3)[nH]n2)cc1 [Example 218, 4-Methoxy-benzoic acid 5-(1H-benzoimidazol-2-yl)-1H-pyrazol-3-yl ester] | > 3 µM
O=C(Oc1cc(-c2nc3ccccc3[nH]2)[nH]n1)c1c(F)c(F)c(F)c(F)c1F [Example 220, 2,3,4,5,6-Pentafluoro-benzoic acid 5-(1H-benzoimidazol-2-yl)-1H-pyrazol-3-yl ester] | > 3 µM
O=C(Oc1cc(-c2nc3ccccc3[nH]2)[nH]n1)C1CC1 [Example 221, Cyclopropanecarboxylic acid 5-(1H-benzoimidazol-2-yl)-1H-pyrazol-3-yl ester] | > 3 µM
O=C(Oc1cc(-c2nc3ccccc3[nH]2)[nH]n1)C(F)(F)C(F)(F)C(F)(F)F [Example 222, 2,2,3,3,4,4,4-Heptafluoro-butyric acid 5-(1H-benzoimidazol-2-yl)-1H-pyrazol-3-yl ester] | > 3 µM
O=C(Oc1cc(-c2nc3ccccc3[nH]2)[nH]n1)C1CCCC1 [Example 223, Cyclopentanecarboxylic acid 5-(1H-benzoimidazol-2-yl)-1H-pyrazol-3-yl ester] | > 3 µM
O=C(CCc1ccccc1)Oc1cc(-c2nc3ccccc3[nH]2)[nH]n1 [Example 224, 3-Phenyl-propionic acid 5-(1H-benzoimidazol-2-yl)-1H-pyrazol-3-yl ester] | 0.3 to 3 µM
O=C(Oc1cc(-c2nc3ccccc3[nH]2)[nH]n1)c1ccc(-c2ccccc2)cc1 [Example 225, Biphenyl-4-carboxylic acid 5-(1H-benzoimidazol-2-yl)-1H-pyrazol-3-yl ester] | > 3 µM
O=C(Oc1cc(-c2nc3ccccc3[nH]2)[nH]n1)c1cc(C(F)(F)F)cc(C(F)(F)F)c1 [Example 226, 3,5-Bis-trifluoromethyl-benzoic acid 5-(1H-benzoimidazol-2-yl)-1H-pyrazol-3-yl ester] | > 3 µM
O=C(Oc1cc(-c2nc3ccccc3[nH]2)[nH]n1)c1ccc(C(F)(F)F)cc1 [Example 227, 4-Trifluoromethyl-benzoic acid 5-(1H-benzoimidazol-2-yl)-1H-pyrazol-3-yl ester] | > 3 µM
O=C(Oc1cc(-c2nc3ccccc3[nH]2)[nH]n1)c1cccs1 [Example 228, Thiophene-2-carboxylic acid 5-(1H-benzoimidazol-2-yl)-1H-pyrazol-3-yl ester] | > 3 µM
